The results in this text go back to patent publication US20230031406A1, “COMPOUNDS AND COMPOSITIONS FOR TREATING CONDITIONS ASSOCIATED WITH NLRP ACTIVITY” (Novartis AG, priority 2018, published 2023).

Where two headings read alike, the source gives them in different places.

The assay concerns PMA-differentiated THP-1 cells. Kind of assay: IL-1β production in PMA-differentiated THP-1 cells stimulated with gramicidin (hTHP-1 assay containing 2% fetal bovine serum; Procedures 1 and 2). The assay is classed as cell-based, human. Particulars: 2% fetal bovine serum. The essentials: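 Secreted IL-1β, read by HTRF, after gramicidin challenge (5 μM, 2 h) of THP-1 cells differentiated with PMA (20 ng/ml, 16-18 h) and plated at 50,000 cells/well in 2% FBS medium. Compounds, 0.0017-100 μM final with 0.37% DMSO, were added 1 h before stimulation.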

The mark [1] stands for this setting: Table B3, hTHP-1 assay, class symbols, read-out: IC50.
Setting [2] is: Homo sapiens, THP-1, Table B1, class symbols, read-out: Average IC50 of compounds in hTHP-1 assay: hTHP-1 IC50.
The mark [3] stands for this setting: Table B2, class symbols, read-out: hTHP-1 IC50.
The mark [4] stands for this setting: Homo sapiens, THP-1, Table B2, class symbols, read-out: hTHP-1 IC50.
Setting [5] is: Homo sapiens, THP-1, Table B2, numeric bounds, read-out: hTHP-1 IC50.
[6] abbreviates: Homo sapiens, THP-1, Table B3, hTHP-1 assay, class symbols, read-out: IC50.

For orientation: IC50 means the concentration needed to halve the response being measured. Turning to `CCn1cc(F)c(S(N)(=O)=NC(=O)Nc2c3c(nc4c2CCC42CC2)CCC3)n1` (single isomer, unassigned) [Example 671, (R) or (S)-1-ethyl-4-fluoro-N′-((1′,5′,6′,7′-tetrahydro-2′H-spiro[cyclopropane-1,3′-dicyclopenta[b,e]pyridin]-8′-yl)carbamoyl)-1H-pyrazole-3-sulfonimidamide], the IC50 under setting [1] is 0.008 to 0.04 µM. As for `CC(C)n1cc(F)c(S(N)(=O)=NC(=O)Nc2c3c(nc4c2CC[C@H]4C)CCC3)n1` (single isomer, unassigned) [Example 758, (S) or (R)-4-fluoro-1-isopropyl-N′-(((R)-3-methyl-1,2,3,5,6,7-hexahydrodicyclopenta[b,e]pyridin-8-yl)carbamoyl)-1H-pyrazole-3-sulfonimidamide], the IC50 (Table B4, class symbols, read-out: hTHP-1 IC50) fell in the range of 1 to 5 µM. On to `Cc1nc(C(C)(C)O)ccc1S(N)(=O)=NC(=O)Nc1c2c(nc3c1CCC3)CCC2` (single isomer, unassigned) [Compound 157a, (S) or (R)-N′-((1,2,3,5,6,7-hexahydrodicyclo-penta[b,e]pyridin-8-yl)carbamoyl)-6-(2-hydroxypropan-2-yl)-2-methylpyridine-3-sulfonimidamide], for which the IC50 (Homo sapiens, THP-1, Table B1, numeric bounds, read-out: Average IC50 of compounds in hTHP-1 assay: hTHP-1 IC50) was more than 30 µM. In the case of `CC1(C)Cc2nc3c(c(NC(=O)N=S(N)(=O)c4cnc(C(C)(C)O)s4)c2C1)CCC3` (single isomer, unassigned) [Compound 147b, (R) or (S)-N′-((2,2-dimethyl-1,2,3,5,6,7-hexahydro-dicyclopenta[b,e]pyridin-8-yl)carbamoyl)-2-(2-hydroxypropan-2-yl)thiazole-5-sulfonimidamide], the IC50 under setting [2] was 1 to 5 µM. On to `CCc1c(C2CC2)nc2c(c1NC(=O)N=S(N)(=O)c1cnc(C(C)(C)O)s1)CCC2` (single isomer, unassigned) [Compound 675a, (R) or (S)-N′-((2-cyclopropyl-3-ethyl-6,7-dihydro-5H-cyclopenta[b]pyridin-4-yl)carbamoyl)-2-(2-hydroxypropan-2-yl)thiazole-5-sulfonimidamide], for which the IC50 under setting [3] lay in the range of 1 to 5 µM. As for `CCc1cc(F)c(S(N)(=O)=NC(=O)Nc2c3c(nc4c2CC[C@H]4C)CCC3)s1` (single isomer, unassigned) [Compound 720a, (R) or (S)-5-Ethyl-3-fluoro-N′-(((R)-3-methyl-1,2,3,5,6,7-hexahydrodicyclopenta[b, e]pyridin-8-yl)carbamoyl)thiophene-2-sulfonimidamide], the IC50 under setting [3] was in the range of 0.2 to 1 µM. On to `Cc1c(C(F)(F)F)nc2c(c1NC(=O)N=S(N)(=O)c1ccn(C(C)C)n1)CCC2` (stereo not drawn) [Compound 628, 1-Isopropyl-N′-((3-methyl-2-(trifluoromethyl)-6,7-dihydro-5H-cyclopenta[b]pyridin-4-yl)carbamoyl)-1H-pyrazole-3-sulfonimidamide], for which the IC50 under setting [4] is 0.2 to 1 µM. Take `CCC1CCc2c1nc1c(c2NC(=O)N=S(N)(=O)c2cnc(C(C)(C)O)s2)CCC1` (single isomer, unassigned) [Compound 662b, (S, R) or (S, S) or (R, S) or (R, R)-N′-((3-Ethyl-1,2,3,5,6,7-hexaliydrodicyclopenta [b,e]pyridin-8-yl)caibamoyl)-2-(2-hydroxypropan-2-yl)thiazole-5-sulfonimidamide]: the IC50 under setting [5] was more than 30 µM.

Consider `Cc1c(C2CC2)nc(C2CC2)c(C)c1NC(=O)N=S(N)(=O)c1cc(C(C)(C)O)cs1` (stereo not drawn) [Compound 612, N′-((2,6-dicyclopropyl-3,5-dimethylpyridin-4-yl)carbamoyl)-4-(2-hydroxypropan-2-yl)thiophene-2-sulfonimidamide], for which the IC50 under setting [4] fell in the range of 1 to 5 µM. For `Cc1c(C2(C)CC2)nc2c(c1NC(=O)N=S(N)(=O)c1cc(C(C)(C)O)cs1)CCC2` (single isomer, unassigned) [Compound 669a, (S) or (R)-4-(2-Hydroxypropan-2-yl)-N′-((3-methyl-2-(1-methylcyclopropyl)-6,7-dihydro-5H-cyclopenta[b]pyridin-4-yl)carbamoyl) thiophene-2-sulfonimidamide], under setting [5], the IC50 is more than 30 µM.

With `C[C@@H]1CCc2c1nc1c(c2NC(=O)N=S(N)(=O)c2cc(F)c(C(C)(C)O)s2)CCC1` (single isomer, unassigned) [Compound 616b, (S) or (R)-4-Fluoro-5-(2-hydroxypropan-2-yl)-N′-(((R)-3-methyl-1,2,3,5,6,7-hexahydrodicyclopenta [b,e]pyridin-8-yl)carbamoyl) thiophene-2-sulfonimidamide], the IC50 under setting [3] fell in the range of 5 to 30 µM. `CC(C)(O)c1csc(S(N)(=O)=NC(=O)Nc2cc(C(F)(F)F)nc3c2CCC3)c1` (single isomer, unassigned) [Example 668, (S) or (R)-4-(2-hydroxypropan-2-yl)-N′-((2-(trifluoromethyl)-6,7-dihydro-5H-cyclopenta[b]pyridin-4-yl)carbamoyl)thiophene-2-sulfonimidamide]: the IC50 (Homo sapiens, THP-1, Table B3, hTHP-1 assay, numeric values, read-out: IC50) was more than 30 µM. `CCc1c(C(F)(F)F)nc2c(c1NC(=O)N=S(N)(=O)c1nn(C(F)F)cc1F)CCC2` (single isomer, unassigned) [Example 710, (S) or (R)-1-(difluoromethyl)-N′-((3-ethyl-2-(trifluoromethyl)-6,7-dihydro-5H-cyclopenta[b]pyridin-4-yl)carbamoyl)-4-fluoro-1H-pyrazole-3-sulfonimidamide]: under setting [1], the IC50 fell in the range of 5 to 30 µM. On to `CC1(C)CCc2c1nc1c(c2NC(=O)N=S(N)(=O)c2ccn(C(F)F)n2)CCC1` (single isomer, unassigned) [Compound 122b, (S) or (R)-1-(difluoromethyl)-N′-((3,3-dimethyl-1,2,3,5,6,7-hexahydrodicyclo-penta[b,e]pyridin-8-yl)carbamoyl)-1H-pyrazole-3-sulfonimidamide], for which the IC50 (Table B1, class symbols, read-out: Average IC50 of compounds in hTHP-1 assay: hTHP-1 IC50) is 5 to 30 µM. For the compound `C[C@@](O)(CO)c1cc(F)c([S@@](N)(=O)=NC(=O)Nc2c3c(nc4c2CCC42CC2)CCC3)s1` [Example 675, (S)-5-((R)-1,2-dihydroxypropan-2-yl)-3-fluoro-N′-((1′,5′,6′,7′-tetrahydro-2′H-spiro[cyclopropane-1,3′-dicyclopenta[b,e]pyridin]-8′-yl)carbamoyl)thiophene-2-sulfonimidamide], the IC50 under setting [6] was 5 to 30 µM. For `CC1(C)CCc2c1nc1c(c2NC(=O)N=S(N)(=O)c2cnn3c2OCCC3)CCC1` (single isomer, unassigned) [Compound 304a, (S) or (R)-N′-((3,3-dimethyl-1,2,3,5,6,7-hexahydrodicyclopenta [b,e]pyridin-8-yl)carbamoyl)-6,7-dihydro-5H-pyrazolo[5,1-b][1,3] oxazine-3-sulfonimidamide], the 50% inhibitory concentration (IC50) under setting [5] is more than 30 µM. Turning to `CC(C)(O)c1sc(S(N)(=O)=NC(=O)Nc2c3c(nc4c2CCC4)CCC3)cc1F` (stereo not drawn) [Compound 678, 4-Fluoro-N′-((1,2,3,5,6,7-hexahydrodicyclopenta[b,e]pyridin-8-yl)carbamoyl)-5-(2-hydroxypropan-2-yl)thiophene-2-sulfonimidamide], under setting [4], the IC50 was in the range of 1 to 5 µM. `CC(C)(O)c1cc(Br)c(S(N)(=O)=NC(=O)Nc2c3c(nc4c2CCC4)CCC3)s1` (stereo not drawn) [Compound 690, 3-Bromo-N′-((1,2,3,5,6,7-hexahydrodicyclopenta[b,e]pyridin-8-yl)carbamoyl)-5-(2-hydroxypropan-2-yl)thiophene-2-sulfonimidamide]: under setting [4], the IC50 lay within 1 to 5 µM. In the case of `CC(C)(O)c1csc(S(N)(=O)=NC(=O)Nc2c3c(nc4c2CCC4(C)C)CCC3)c1` (stereo not drawn) [Compound 127, N′-((3,3-dimethyl-1,2,3,5,6,7-hexahydrodicyclopenta[b,e]pyridin-8-yl)carbamoyl)-4-(2-hydroxypropan-2-yl)thiophene-2-sulfonimidamide], the half-inhibitory concentration (IC50) under setting [2] lay in the range of 0.04 to 0.2 µM.

In the case of `CCc1ncc(S(N)(=O)=NC(=O)Nc2c3c(nc4c2CC[C@H]4C)CCC3)s1` (single isomer, unassigned) [Example 673, (S) or (R)-2-ethyl-N′-(((R)-3-methyl-1,2,3,5,6,7-hexahydrodicyclopenta[b,e]pyridin-8-yl)carbamoyl) thiazole-5-sulfonimidamide], under setting [1], the IC50 was in the range of 5 to 30 µM.

With `Cc1c(C(F)(F)F)nc2c(c1NC(=O)N=S(N)(=O)c1cnc(C(C)(C)O)s1)CCC2` (single isomer, unassigned) [Compound 661b, (S) or (R)-2-(2-Hydroxypropan-2-yl)-N′-((3-methyl-2-(trifluoromethyl)-6,7-dihydro-5H-cyclopenta[b]pyridin-4-yl)carbamoyl)thiazole-5-sulfonimidamide], under setting [3], the IC50 lay in the range of 5 to 30 µM.

`CCn1nc(S(N)(=O)=NC(=O)Nc2c3c(nc4c2CCC42CC2)CCC3)cc1CO` (stereo not drawn) [Example 589, 1-Ethyl-5-(hydroxymethyl)-N′-((1′,5′,6′,7′-tetrahydro-2′H-spiro[cyclopropane-1,3′-dicyclopenta[b,e]pyridin]-8′-yl)carbamoyl)-1H-pyrazole-3-sulfonimidamide]: the IC50 under setting [6] was in the range of 1 to 5 µM. On to `CC(C)(O)c1ncc(S(N)(=O)=NC(=O)Nc2nc3c(c4c2CCC4)CCC3)s1` (stereo not drawn) [Compound 677, N′-((1,2,3,5,6,7-hexahydrodicyclopenta[b,d]pyridin-5-yl)carbamoyl)-2-(2-hydroxypropan-2-yl)thiazole-5-sulfonimidamide], for which the IC50 under setting [4] was 1 to 5 µM. With `CC(C)(O)c1ncc(S(N)(=O)=NC(=O)Nc2c3c([n+]([O-])c4c2CCC4)CCC3)s1` (stereo not drawn) [Compound 146, 8-(3-(amino(2-(2-hydroxypropan-2-yl)thiazol-5-yl)(oxo)-λ6-sulfaneylidene)ureido)-1,2,3,5,6,7-hexahydrodicyclopenta[b,e]pyridine 4-oxide], under setting [2], the IC50 lay within 5 to 30 µM.
